Read-outs that look alike come from different tables or passages of the source.
Molecular target: T1, c-kit (Homo sapiens, UniProt P10721)
T1 construct: human Mo7e cells which endogenously express c-kit; endogenous in cells; host or cells: human Mo7e cells (promegakaryocytic leukemia line), stimulated with human recombinant SCF
Experiment: Mo7e cell proliferation assay (SCF dependent proliferation)
Assay type: cell-based
Settings: human Mo7e cells stimulated with SCF, 48 hours, CellTiter Glo, 1% FBS, read-out: c-kit (Mo7e)
Method in brief: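 Human Mo7e cells with endogenous c-kit, proliferation driven by SCF, 384-well format. After 48 h at 37 °C viability read by CellTiter-Glo luminescence. IC50 taken as concentration giving response halfway between baseline and maximum.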

T1 sequence (P10721 26-976): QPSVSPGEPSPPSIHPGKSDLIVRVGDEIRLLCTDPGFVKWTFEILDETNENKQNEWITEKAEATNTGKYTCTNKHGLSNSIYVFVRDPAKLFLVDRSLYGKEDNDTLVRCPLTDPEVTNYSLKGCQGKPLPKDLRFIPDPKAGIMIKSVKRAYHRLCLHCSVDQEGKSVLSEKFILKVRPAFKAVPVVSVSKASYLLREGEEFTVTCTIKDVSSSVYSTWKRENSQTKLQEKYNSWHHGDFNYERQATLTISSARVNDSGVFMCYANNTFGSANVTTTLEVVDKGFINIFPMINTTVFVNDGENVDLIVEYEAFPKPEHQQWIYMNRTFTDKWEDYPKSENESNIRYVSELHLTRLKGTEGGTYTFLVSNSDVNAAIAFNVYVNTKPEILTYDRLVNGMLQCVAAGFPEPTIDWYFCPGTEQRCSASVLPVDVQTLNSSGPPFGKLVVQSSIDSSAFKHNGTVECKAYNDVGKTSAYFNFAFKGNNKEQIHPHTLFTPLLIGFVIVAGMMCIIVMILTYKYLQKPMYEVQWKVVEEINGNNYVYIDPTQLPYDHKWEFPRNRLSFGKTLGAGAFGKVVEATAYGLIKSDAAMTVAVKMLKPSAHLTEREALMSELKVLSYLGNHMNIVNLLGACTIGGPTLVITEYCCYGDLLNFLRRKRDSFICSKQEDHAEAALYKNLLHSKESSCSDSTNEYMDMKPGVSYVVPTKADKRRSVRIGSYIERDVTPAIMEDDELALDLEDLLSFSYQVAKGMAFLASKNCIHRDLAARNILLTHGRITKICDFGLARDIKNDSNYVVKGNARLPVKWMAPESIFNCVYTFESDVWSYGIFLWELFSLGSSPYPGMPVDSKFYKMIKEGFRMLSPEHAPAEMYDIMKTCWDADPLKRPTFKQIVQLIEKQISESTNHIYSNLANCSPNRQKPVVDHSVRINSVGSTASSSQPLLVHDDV

Row | SMILES | IC50 (Table 2) | IC50 (Table 1)
1 | Cc1ccc(-c2noc(C3CC[C@H](O)CO3)n2)cc1NC(=O)c1cnc2ccccn12 (stereo partly shown) [F114] | 183 nM | –
2 | Cc1ccc(-c2noc([C@@H]3CCN3C(=O)OC3(C)CC3)n2)cc1NC(=O)c1cnc2ccccn12 [F202] | 208 nM | –
3 | Cc1ccc(Nc2noc(C3CCOCC3)n2)cc1NC(=O)c1cnc2ccccn12 [F69] | – | 39 nM
4 | COC(=O)N1CCC[C@@H](c2nc(-c3ccc(C)c(NC(=O)c4cnc5ccccn45)c3)no2)C1 [F207] | 141 nM | –
5 | Cc1ccc(-c2noc(C3CCC(=O)N3)n2)cc1NC(=O)c1cnc2ccccn12 (stereo not shown) [F192] | 672 nM | –
6 | Cc1ccc(-c2noc([C@@H]3CCCN3)n2)cc1NC(=O)c1cnc2ccccn12 [F190] | 476 nM | –
7 | COC(=O)N1CC(c2nc(-c3ccc(C)c(NC(=O)c4cnc5ccc(CCc6nn[nH]n6)cn45)c3)no2)C1 [F308] | > 10000 nM | –
8 | O=C(Nc1cc(-c2noc(CN3CCC(F)(F)C3)n2)ccc1F)c1cnc2ccccn12 [F45] | – | 90 nM
9 | Cc1ccc(-c2noc(C[C@@H]3CCCN3S(C)(=O)=O)n2)cc1NC(=O)c1cnc2ccccn12 [F41] | – | 92 nM
10 | COC(=O)N1CCC(c2nc(-c3ccc(C)c(NC(=O)c4cnc5ccccn45)c3)no2)CC1 [F33] | – | 84 nM
11 | Cc1ccc(-c2noc([C@H]3CCCN3)n2)cc1NC(=O)c1cnc2ccccn12 [F200] | 395 nM | –
12 | Cc1ccc(-c2noc(C3CCOCC3)n2)cc1NC(=O)c1cnc2ccccn12 [F102] | 286 nM | –
13 | Cc1ccc(-c2noc([C@@H]3CCN3S(=O)(=O)C(C)C)n2)cc1NC(=O)c1cnc2ccccn12 [F47] | – | 47 nM
14 | Cc1ccc(-c2noc(C3CN(C(=O)N(C)C)C3)n2)cc1NC(=O)c1cnc2ccccn12 [F174] | 831 nM | –
15 | COC(=O)N1CC(c2nc(-c3ccc(C)c(NC(=O)c4cnc5ccc(C(C)(C)O)cn45)c3)no2)C1 [F246] | 317 nM | –
16 | Cc1ccc(-c2noc(CC3CCCCO3)n2)cc1NC(=O)c1cnc2ccccn12 (stereo not shown) [F44] | – | 17 nM
17 | COC(=O)N1CC(c2nc(-c3ccc(C)c(NC(=O)c4cnc5cc(C(F)(F)F)ccn45)c3)no2)C1 [F238] | 130 nM | –
18 | COC(=O)N1CC(c2nc(-c3ccc(C)c(NC(=O)c4cnc5ccc(F)cn45)c3)no2)C1 [F55] | – | 54 nM
19 | CCCCS(=O)(=O)N1CC(c2nc(-c3ccc(F)c(NC(=O)c4cnc5ccccn45)c3)no2)C1 [F219] | 158 nM | –
20 | COC(=O)N1CC(c2nc(-c3ccc(C)c(NC(=O)c4cnc5ccc(OC)cn45)c3)no2)C1 [F60] | – | 28 nM
21 | Cc1ccc(-c2noc([C@H]3COCCN3S(C)(=O)=O)n2)cc1NC(=O)c1cnc2ccccn12 [F167] | 102 nM | –
22 | Cc1ccc(-c2noc(CN3CCC(F)(F)CC3)n2)cc1NC(=O)c1cnc2ccccn12 [F30] | – | 20 nM

From patent publication US8754071B2 (priority 2011, dated 2014)
